Entries after “also recorded” stand apart in the source; their conditions may differ. Like-named read-outs stand apart in the source and are kept apart here.
Assays:
anti-αGal antibody [1] = conditions: Neethling et al., 1996; cited from earlier work
[2] = tested on: anti-αGal IgG and IgM antibodies; test: In vitro mouse laminin ELISA: soluble oligosaccharides as neutralizers of anti-αGal antibodies; assay type: binding; conditions: serum pre-incubated with oligosaccharide 1 hour 37° C.; result in words
Description: In vitro laminin ELISA evaluation of αGal oligosaccharides as neutralizers of anti-αGal antibodies. Mouse laminin is a basement membrane glycoprotein that expresses 50-70 oligosaccharides terminating in Galα1-3Gal, i.e., the αGal motif (Arumugham et al., 1986, Biochem. Biophys. Aeta 883:112). In this assay, immobilization of mouse laminin on microtiter plates serves as a capture ligand for anti-αGal antibodies. […] The example provides a method by which to determine the ability of αGal oligosaccharides and pharmaceutically acceptable derivative of the invention to bind to anti-αGal antibodies and to thereby remove these antibodies from the serum, neutralize anti-αGal antibodies, and/or target anti-αGal directed complement-mediated lytic attack to specific tissue or cell types. The example also provides a method by which the effectiveness of the methods of the invention can be evaluated and dosages determined.
Sera were mixed with serial dilutions of αGal oligosaccharides (αGal-CHO) at 37° C. for 1 hour, then added to mouse laminin-coated microtiter plates and incubated for 1 hour to allow binding. The microtiter plates were coated with 20 μg/mL mouse laminin in 50 mM NaHCO3 buffer, pH 9.5 at 4° C. overnight, blocked with SuperBlock solution (Pierce) for 2 hours, and then washed 3 times with SuperBlock solution. After washing excess serum away, bound IgG and IgM was measured by adding goat anti-human IgG (or IgM) conjugated to alkaline phosphatase and incubating for 1 hour, washing, and adding substrate (pNPP).

[3] = tested on: anti-αGal antibodies (serum IgG and IgM); test: In vitro immobilized αGal pentasaccharide glycinamide ELISA; assay type: binding; conditions: baboon serum pre-incubated with oligosaccharide 1 hour 37° C.; result in words
Description: In vitro immobilized αGal oligosaccharide ELISA analysis evaluation of anti-αGal antibody titer and of αGal oligosaccharides as neutralizers of anti-αGal antibodies. This example provides an assay that may be applied to determine the ability of αGal oligosaccharides and pharmaceutically acceptable derivative of the invention to bind to anti-αGal antibodies and to thereby remove these antibodies from the serum or plasma, neutralize anti-αGal antibodies, and/or target complement-mediated lytic attack to specific tissue or cell types. Such an ELISA is additionally useful in clinical monitoring of anti-αGal antibodies in blood of patients in advance of, and following xenotransplantation of organs from animals that express the αGal epitope.
The derivative of the αGal pentasaccharide (αGal pentasaccharide glycinamide) was synthesized and immobilized on N-oxysuccinimide microtiter plates (Costar) (0.5 mg/ml αGal pentasaccharide glycinamide) in bicarbonate buffer, pH 9.0, overnight at 4° C.; the plate was blocked first for 1 hour with 1M ethanolamine in the same buffer and secondly with phosphate buffered saline, pH 7.4, containing 1% bovine serum albumin and 0.05% Tween 20 and 0.02% NaN3 or PBNT. PBNT was used for all three subsequent plate washes and as a diluent for the antibodies. […] The optical density at 405 nm was recorded.

pig kidney cells, PK-15 = test: In vitro cytotoxicity of human sera on PK-15 monolayers; assay type: cell-based; conditions: sera of individual humans; result in words
Description: Sera were incubated with serial dilutions of αGal oligosaccharides at 37° C. for 1 hour, then added to αGal-expressing monolayers (pig kidney cells, PK-15) in Terasaki plates for 1 hour at 37° C. Cytotoxicity was mediated by either endogenous complement, or the sera were de-complemented (heat inactivated for 30 minutes at 56° C.) and exogenous (rabbit) complement was added. After washing away excess serum, the viable dye mix "live-dead" (calcein AM/ethidium homodimer (Molecular Probes Inc., Eugene Oreg.)) was added and monolayers were scored for viability by fluorescence microscopy.

anti-αGal antibody [4] = test: In vivo blood serum analysis: serum anti-αGal antibody neutralizing capacity in baboons; set-up: species or system baboon; conditions: monovalent oligosaccharide
Description: Pharmokinetics of αGal trisaccharides and αGal pentasaccharides in baboons. This example presents a study of the pharmokinetic profile and serum anti-αGal antibody neutralizing capacity in baboons of αGal trisaccharides and αGal pentasaccharides and previews the compounds' suitability for use in the prevention of hyperacute rejection of porcine organs xenotransplanted into baboons.
(§1) Three Baboons were outfitted with indwelling venous and arterial catheters to the femoral vessels, and held in place with the aid of a jacket. Oligosaccharides were administered through the catheter in a 15 minute continuous infusion.

[5] = Pharmacokinetics after 15 minute intravenous bolus in baboons; assay type: in vivo, baboon; conditions: for clearance / half-life / Vd: baboon, plasma, iv, 500 umol/kg, 0.5 mMol/Kg 15 minute i.v. bolus; for Vd: read-out: Volume of Distribution
Description: The pharmacokinetics of the αGal trisaccharide compositions and the αGal pentasaccharide compositions were determined by delivering to one baboon by 15 minute intravenous bolus, 0.5 mMol/Kg of one oligosaccharide and 48 hours later, delivering 0.5 mmol/Kg of the second oligosaccharide, and for a second baboon, delivering the oligosaccharides according to the same procedure, but in the reverse order.
as §1
The clearance is used to calculate the infusion rate needed to maintain a desired drug concentration. The half-life describes how quickly concentrations diminish with time. Mathematical formulations known in the art were applied to estimate the pharmacokinetic parameters of the αGal trisaccharide and αGal pentasaccharide. […] Compared to other drugs, the volumes of distribution of these oligosaccharides are low, less than the extravascular water volume (<400 mL/kg). The clearance is typical of compounds eliminated by GFR (glomerular filtration rate).

hyperacute rejection = conditions: cited from earlier work
[6] = to attain 0.5 mM steady state serum concentration
[7] = to attain 1.0 mM steady state serum concentration
[8] = to attain 2.0 mM steady state serum concentration

OC[C@H]1O[C@H](O[C@H]2[C@@H](O)[C@@H](CO)OC(O)[C@@H]2O)[C@H](O)[C@@H](O)[C@H]1O (some centres unmarked) [αGal disaccharide, Galα1-3Gal]
Neutralization of anti-αGal antibody in vitro, in words (anti-αGal antibody [1]): effective in neutralizing the anti-αGal antibody in vitro

OC[C@H]1O[C@@H](O[C@H]2[C@H](O)[C@@H](O)C(O)O[C@@H]2CO)[C@H](O)[C@@H](O)[C@H]1O (some centres unmarked) [lactose, galactoseβ1-4glucose]
Inhibition of anti-αGal IgG and IgM antibody binding to immobilized mouse laminin [2]: do not inhibit antibody binding

OC[C@H]1O[C@@H](O[C@@H]2[C@H](O)[C@@H](O)C(O)O[C@@H]2CO)[C@H](O)[C@@H](O)[C@H]1O (some centres unmarked) [Galβ1-4Gal]
Inhibition of anti-αGal IgG and IgM antibody binding to immobilized mouse laminin [2]: do not inhibit antibody binding
Inhibition of serum IgG and IgM binding to immobilized αGal pentasaccharide glycinamide [3]: minimally

OC[C@H]1O[C@@](CO)(O[C@H]2O[C@H](CO)[C@@H](O)[C@H](O)[C@H]2O)[C@@H](O)[C@@H]1O [sucrose]
Inhibition of anti-αGal IgG and IgM antibody binding to immobilized mouse laminin [2]: do not inhibit antibody binding
Inhibition of serum IgG and IgM binding to immobilized αGal pentasaccharide glycinamide [3]: not inhibited

CC(=O)N[C@H]1C(O)O[C@H](CO)[C@@H](O[C@@H]2O[C@H](CO)[C@H](O)[C@H](O[C@H]3O[C@H](CO)[C@H](O)[C@H](O)[C@H]3O)[C@H]2O)[C@@H]1O (some centres unmarked) [αGal trisaccharide, Galα1-3Galβ1-4GlcNAc]
Neutralization of anti-αGal antibody in vitro, in words (anti-αGal antibody [1]): effective in neutralizing the anti-αGal antibody in vitro
Relative effectiveness in neutralizing anti-αGal antibody in vitro (anti-αGal antibody [1]): ten times more effective than the αGal disaccharide
Inhibition of serum cytotoxicity toward PK-15 cells (pig kidney cells, PK-15): slightly better inhibitor of cytotoxicity than αGal pentasaccharide; also recorded: inhibited slightly better by the αGal trisaccharide than by the αGal pentasaccharide
Minimal serum (circulating) concentration required to inhibit hyperacute rejection / be efficacious in vivo (anti-αGal antibody [4]): ≥ 1 mM
Inhibition of anti-αGal IgG and IgM antibody binding to immobilized mouse laminin [2]: slightly better inhibitor of IgG (FIG. 1A) and IgM (FIG. 1B) binding to laminin than αGal pentasaccharide
clearance ([5]; baboon 1003): 4.18 mL/min/kg
half-life ([5]; baboon 1003): 46.8 min
Vd ([5]; baboon 1003): 0.288 L/kg
clearance ([5]; baboon 1015): 4.88 mL/min/kg
half-life ([5]; baboon 1015): 51.5 min
Vd ([5]; baboon 1015): 0.362 L/kg
Calculated continuous infusion, total amount [5, 6]: 1.04 Kg/14 days
Calculated loading dose [5, 6]: 3.82 g/20 Kg baboon
Calculated loading dose (bolus or 15 min infusion) [5, 6]: 191 mg/kg
Calculated continuous infusion, total amount [5, 7]: 2.08 Kg/14 days
Calculated loading dose [5, 7]: 7.64 g/20 Kg baboon
Calculated loading dose (bolus or 15 min infusion) [5, 7]: 382 mg/kg
Calculated continuous infusion, total amount [5, 8]: 4.15 Kg/14 days
Calculated loading dose [5, 8]: 15.28 g/20 Kg baboon
Calculated loading dose (bolus or 15 min infusion) [5, 8]: 764 mg/kg

OC[C@H]1O[C@H](OC[C@H]2OC(O)[C@H](O)[C@@H](O)[C@@H]2O)[C@H](O)[C@@H](O)[C@H]1O (some centres unmarked) [melibiose, Galα1-6Glu]
Prevention of hyperacute rejection on in vivo administration (hyperacute rejection; Ye et al., 1994): failed to prevent hyperacute rejection
Toxicity on in vivo administration (hyperacute rejection; necessary concentrations in pig/primate xenotransplantation): cytotoxic to other tissue; also recorded: proved highly toxic

CC(=O)N[C@H]1[C@H](O[C@H]2[C@@H](O)[C@@H](CO)O[C@@H](O[C@H]3[C@H](O)[C@@H](O)C(O)O[C@@H]3CO)[C@@H]2O)O[C@H](CO)[C@@H](O[C@@H]2O[C@H](CO)[C@H](O)[C@H](O)[C@H]2O)[C@@H]1O (some centres unmarked) [Galβ1-4GlcNAcβ1-3 Galβ1-4Glc]
Inhibition of anti-αGal IgG and IgM antibody binding to immobilized mouse laminin [2]: do not inhibit antibody binding

From patent US6096725A, “Methods of using αGal oligosaccharides as immune system targeting agents” (Neose Technologies, Inc., priority 1997, dated 2000)
